From patent US9200016B2, “Substituted 6, 7-dialkoxy-3-isoquinoline derivatives as inhibitors of phosphodiesterase 10 (PDE 10A)” (Allergan, Inc., priority 2013, dated 2015)
Counter-ions that a name gives are not always drawn.

Each molecule was assayed against PDE10A (Homo sapiens, UniProt Q9Y233) (assay: Diaxonhit phosphodiesterase assay (TR-FRET, LANCE cAMP kit), PDE10A).
Format: biochemical
Experimental: (§1) Diaxonhit Phosphodiesterase Assay (PDE10A and PDE4D3)
The PDE assay is based on the homogenous time-resolved fluorescence resonance energy transfer (TR-FRET) technology (LANCE® from Perkin Elmer). […] When there is PDE activity, resulting in the degradation of the cyclic nucleotide, the complex is not formed and a decrease in signal is observed.
The phosphodiesterase assay was developed using the LANCE® cAMP kit (PerkinElmer). The assay buffer contained HBSS with 5 mM HEPES, 0.1% BSA, and 1.5 mM MgCl2, pH 7.4. […] Chemical compounds were dissolved in DMSO (final concentration 2% (v/v)).
(§2) In a 384-well plate, 2 μL of the inhibitor and 3 μL PDE were added to the well, followed by the addition of 5 μl substrate biotinylated cAMP (1:5). After 60 min incubation at room temperature, 10 μL of assay detection mixture was added to the assay plate. After 1 h at room temperature, the signal was measured on EnVision™ (Perkin Elmer).

PDE10A, sequence (Q9Y233 whole entry, looked up): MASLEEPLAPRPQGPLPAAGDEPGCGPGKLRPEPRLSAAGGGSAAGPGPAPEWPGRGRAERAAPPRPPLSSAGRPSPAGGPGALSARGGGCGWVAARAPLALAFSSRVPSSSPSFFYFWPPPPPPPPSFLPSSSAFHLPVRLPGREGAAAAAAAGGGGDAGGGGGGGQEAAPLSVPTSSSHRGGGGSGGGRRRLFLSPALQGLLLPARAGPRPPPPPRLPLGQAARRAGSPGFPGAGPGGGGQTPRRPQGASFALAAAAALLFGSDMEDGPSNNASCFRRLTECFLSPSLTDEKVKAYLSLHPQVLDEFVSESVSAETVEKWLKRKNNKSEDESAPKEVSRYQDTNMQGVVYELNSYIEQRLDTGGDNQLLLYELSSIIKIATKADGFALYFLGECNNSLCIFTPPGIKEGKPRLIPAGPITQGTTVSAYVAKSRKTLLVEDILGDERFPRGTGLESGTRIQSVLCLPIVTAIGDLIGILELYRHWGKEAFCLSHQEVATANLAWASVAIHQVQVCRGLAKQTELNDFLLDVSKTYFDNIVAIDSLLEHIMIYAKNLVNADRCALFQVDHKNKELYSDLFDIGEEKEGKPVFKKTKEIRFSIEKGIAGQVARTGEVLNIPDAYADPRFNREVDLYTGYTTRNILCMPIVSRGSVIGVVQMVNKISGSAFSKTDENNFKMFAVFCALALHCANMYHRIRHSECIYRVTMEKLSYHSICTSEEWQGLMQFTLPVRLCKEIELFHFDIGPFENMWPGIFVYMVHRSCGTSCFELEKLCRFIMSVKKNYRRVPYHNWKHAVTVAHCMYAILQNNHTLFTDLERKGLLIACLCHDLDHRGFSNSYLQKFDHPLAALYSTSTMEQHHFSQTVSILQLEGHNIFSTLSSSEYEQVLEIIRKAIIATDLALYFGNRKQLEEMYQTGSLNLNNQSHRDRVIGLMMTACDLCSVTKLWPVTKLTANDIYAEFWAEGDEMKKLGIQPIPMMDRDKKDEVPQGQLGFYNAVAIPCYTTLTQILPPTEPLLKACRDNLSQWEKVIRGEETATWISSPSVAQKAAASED

IC50 | Structure (SMILES)
> 10000 nM | COc1cc2c(Cc3cnc4ccccc4c3)cncc2cc1O [Compound 30, 6-methoxy-4-(quinolin-3-ylmethyl)isoquinolin-7-ol dihydrochloride]
> 10000 nM | COc1cc2c(Cc3cnc4ccccc4c3)cnc(C3CCCCC3)c2cc1OC [Compound 71, 3-((1-cyclohexyl-6,7-dimethoxyisoquinolin-4-yl)methyl)quinoline dihydrochloride]
> 10000 nM | COc1cc2cncc(Cc3cnc4ccccc4c3)c2cc1O [Compound 29, 7-methoxy-4-(quinolin-3-ylmethyl)isoquinolin-6-ol dihydrochloride]

The molecules below were run against PDE4D3 (Homo sapiens (Human), UniProt Q08499) (assay: Diaxonhit phosphodiesterase assay (TR-FRET, LANCE cAMP kit), PDE4D3).
PDE4D3, sequence (Q08499 other isoform, or with tags, fused parts or gaps): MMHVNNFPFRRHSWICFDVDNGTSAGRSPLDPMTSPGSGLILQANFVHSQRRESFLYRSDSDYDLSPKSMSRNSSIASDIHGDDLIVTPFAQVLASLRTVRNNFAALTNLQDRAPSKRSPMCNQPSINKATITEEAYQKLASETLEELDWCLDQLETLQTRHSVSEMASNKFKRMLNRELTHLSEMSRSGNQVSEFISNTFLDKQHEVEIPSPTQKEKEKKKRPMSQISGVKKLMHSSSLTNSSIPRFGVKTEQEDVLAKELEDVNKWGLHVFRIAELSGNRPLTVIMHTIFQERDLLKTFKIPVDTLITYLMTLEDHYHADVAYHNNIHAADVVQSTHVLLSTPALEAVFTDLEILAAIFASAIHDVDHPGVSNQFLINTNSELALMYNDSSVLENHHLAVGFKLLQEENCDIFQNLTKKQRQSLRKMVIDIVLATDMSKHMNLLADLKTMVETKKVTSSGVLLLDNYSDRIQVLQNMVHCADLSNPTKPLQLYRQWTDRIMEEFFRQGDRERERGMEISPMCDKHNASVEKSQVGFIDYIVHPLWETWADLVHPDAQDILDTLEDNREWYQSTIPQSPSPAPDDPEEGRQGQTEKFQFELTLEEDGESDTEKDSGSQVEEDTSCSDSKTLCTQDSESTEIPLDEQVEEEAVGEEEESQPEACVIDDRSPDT
Format: biochemical
Description: as §1
The PDE assay is based on the homogenous time-resolved fluorescence resonance energy transfer (TR-FRET) technology (LANCE® from Perkin Elmer). This competition based assay is formatted using a cAMP specific antibody labeled with the dye, Alexa Fluor® 647, biotin-cAMP and streptavidin labeled with Europium (Eu-SA). As the complex of Eu-SA/biotin-cAMP/Alexa Fluor 647 labeled antibody is formed, an increase in signal is generated. When there is PDE activity, resulting in the degradation of the cyclic nucleotide, the complex is not formed and a decrease in signal is observed.
The phosphodiesterase assay was developed using the LANCE® cAMP kit (PerkinElmer). The assay buffer contained HBSS with 5 mM HEPES, 0.1% BSA, and 1.5 mM MgCl2, pH 7.4. PDE10A (BPS Bioscience) was used at 200 pg/well (with a specific activity of 3200 pmole/min/μg with assay conditions: 10 mM Tris-HCl, pH 7.4, 10 mM MgCl2, 1 mM MnCl2, 200 μM cAMP, 2.5 kU 5′ nucleotidase, 37° C., 20 min) and PDE4D3 (BPS Bioscience) was used at 100 pg/well (with a specific activity of 32713 pmole/min/μg with assay conditions: 10 mM Tris-HCl, pH 7.4, 10 mM MgCl2, 1 mM MnCl2, 200 μM cAMP, 2.5 kU 5′ nucleotidase, 37° C., 20 min). The Biotin-cAMP tracer, supplied in 10 mmol/L Tris-HCl buffered (pH 8.0) salt solution with 1 mmol/L ethylenediaminetetraacetic acid (EDTA), 0.1% bovine serum albumin (BSA), and 0.05% sodium azide, is used at a dilution of 1/375. The assay detection mixture contained the LANCE Eu-W8044 labeled streptavidin 1/2250 (supplied in 50 mmol/L Tris-HCl buffered (pH 7.8) salt solution with 0.9% sodium chloride (NaCl), 0.1% BSA, and 0.05% sodium azide) and the Alexa Fluor® 647-anti cAMP antibody 1/200 (supplied in 50 mmol/L Tris-HCl buffered (pH 7.8) salt solution with 0.9% NaCl, 0.1% BSA, and 0.05% sodium azide). Chemical compounds were dissolved in DMSO (final concentration 2% (v/v)).
as §2

IC50 | Structure (SMILES)
398 nM | CCc1ncc(Cc2ccc3cccc(NC(=O)C(N)=O)c3n2)c2cc(OC)c(OC)cc12 [Compound 93, N^1-(2-((1-ethyl-6,7-dimethoxyisoquinolin-4-yl)methyl)quinolin-8-yl)oxalamide]
232 nM | CCCc1ncc(Cc2cnc3ccc(O)c(C(F)(F)F)c3c2)c2cc(OC)c(OC)cc12 [Compound 162, 3-((6,7-dimethoxy-1-propylisoquinolin-4-yl)methyl)-5-(trifluoromethyl)quinolin-6-ol]
194 nM | COCc1ncc(Cc2cnc3ccc(O)c(C(F)(F)F)c3c2)c2cc(OC)c(OC)cc12 [Compound 169, 3-((6,7-dimethoxy-1-(methoxymethyl)isoquinolin-4-yl)methyl)-5-(trifluoromethyl)quinolin-6-ol]
439 nM | CCc1ncc(Cc2ccc3cccc(O)c3n2)c2cc(OC)c(OC)cc12 [Compound 83, 2-((1-ethyl-6,7-dimethoxyisoquinolin-4-yl)methyl)quinolin-8-ol]
